ChEMBL document CHEMBL2177009, “The use of novel C-methylated spermidine derivatives to investigate the regulation of polyamine metabolism” (J Med Chem, 2011)

Columns and labels:
DU-145 [1] = experiment: Metabolic stability in N1,N11-diethyl-norspermine pretreated human DU145 cells expressing SSAT assessed as accumulation of acetylated derivatives of compound in medium at 100 uM after 48 hrs; format: ADME, cell-based; conditions: du-145, 48 h
DU-145 [2] = experiment: Metabolic stability in human DU145 cells assessed as intracellular methylspermine level per ug DNA at 100 uM after 24 hrs in presence of serum amine oxidases inhibitor aminoguanidine; format: ADME, cell-based; conditions: du-145, 24 h
DU-145 [3] = experiment: Metabolic stability in human DU145 cells assessed as intracellular compound/methylspermine level per ug DNA at 100 uM after 24 hrs in presence of serum amine oxidases inhibitor aminoguanidine; format: ADME, cell-based; conditions: du-145, 24 h
DU-145 [4] = experiment: Effect on intracellular level of S-adenosyl-Lmethionine in human DU145 cells assessed per million cells at 100 uM after 72 hrs in presence of serum amine oxidase inhibitor aminoguanidine and ODC inhibitor DFMO (RVb = 80 +/- 5 pmol/10^6 cells); format: functional
DU-145 [5] = experiment: Metabolic stability in human DU145 cells assessed as intracellular compound/methylspermine level per ug DNA at 100 uM after 48 hrs in presence of serum amine oxidases inhibitor aminoguanidine; format: ADME, cell-based; conditions: du-145, 48 h
DU-145 [6] = experiment: Metabolic stability in human DU145 cells assessed as intracellular compound level per ug DNA at 100 uM after 24 hrs in presence of serum amine oxidases inhibitor aminoguanidine; format: ADME, cell-based; conditions: du-145, 24 h
DU-145 [7] = experiment: Metabolic stability in human DU145 cells assessed as intracellular spermidine level per ug DNA at 100 uM after 72 hrs in presence of serum amine oxidases inhibitor aminoguanidine (reference value: 137 +/- 3 pmol/ug DNA); format: ADME, cell-based; conditions: du-145, 72 h
DU-145 [8] = experiment: Metabolic stability in human DU145 cells assessed as intracellular spermine level per ug DNA at 100 uM after 72 hrs in presence of serum amine oxidases inhibitor aminoguanidine (reference value: 154 +/- 7 pmol/ug DNA); format: ADME, cell-based; conditions: du-145, 72 h
[9] = target: T1, Peroxisomal N(1)-acetyl-spermine/spermidine oxidase (Homo sapiens, UniProt Q6QHF9); experiment: Metabolic stability of the compound assessed as human recombinant APAO-mediated compound degradation at 0.5 to 1 mM after 5 to 60 mins in presence of benzaldehyde; format: ADME; conditions: 1000 µM
DU-145 [10] = experiment: Metabolic stability in human DU145 cells assessed as intracellular spermine level per ug DNA at 100 uM after 48 hrs in presence of serum amine oxidases inhibitor aminoguanidine (reference value: 133 +/- 4 pmol/ug DNA); format: ADME, cell-based; conditions: du-145, 48 h
DU-145 [11] = experiment: Metabolic stability in human DU145 cells assessed as intracellular methylspermine level per ug DNA at 100 uM after 48 hrs in presence of serum amine oxidases inhibitor aminoguanidine; format: ADME, cell-based; conditions: du-145, 48 h
DU-145 [12] = experiment: Metabolic stability in human DU145 cells assessed as intracellular compound/methylspermine level per ug DNA at 100 uM after 72 hrs in presence of serum amine oxidases inhibitor aminoguanidine; format: ADME, cell-based; conditions: du-145, 72 h
DU-145 [13] = experiment: Metabolic stability of the compound in human DU145 cells assessed as metabolites-mediated cell toxicity at 10 uM after 48 hrs by MTT assay in presence of bovine serum amine oxidase; format: ADME, cell-based; conditions: du-145, 48 h
DU-145 [14] = experiment: Metabolic stability in human DU145 cells assessed as intracellular compound level per ug DNA at 100 uM after 48 hrs in presence of serum amine oxidases inhibitor aminoguanidine; format: ADME, cell-based; conditions: du-145, 48 h
DU-145 [15] = experiment: Metabolic stability in human DU145 cells assessed as intracellular spermidine level per ug DNA at 100 uM after 48 hrs in presence of serum amine oxidases inhibitor aminoguanidine (reference value: 137 +/- 5 pmol/ug DNA); format: ADME, cell-based; conditions: du-145, 48 h
DU-145 [16] = experiment: Metabolic stability in human DU145 cells assessed as intracellular spermidine level per ug DNA at 100 uM after 24 hrs in presence of serum amine oxidases inhibitor aminoguanidine (reference value: 154 +/- 7 pmol/ug DNA); format: ADME, cell-based; conditions: du-145, 24 h
DU-145 [17] = experiment: Effect on intracellular level of decarboxylated S-adenosyl-L-methionine in human DU145 cells assessed per million cells at 100 uM after 72 hrs in presence of serum amine oxidase inhibitor aminoguanidine and ODC inhibitor DFMO (RVb = 263 +/- 14 pmol/10^6 cells); format: functional
[18] = Cytotoxicity against human DU145 cells assessed as cell growth at 100 uM after 72 hrs in presence of serum amine oxidase inhibitor aminoguanidine (RVb = 49 +/- 2 pmol/10^6 cells); format: cell-based, DU-145; conditions: read-out: Activity
DU-145 [19] = experiment: Metabolic stability in human DU145 cells assessed as intracellular methylspermine level per ug DNA at 100 uM after 72 hrs in presence of serum amine oxidases inhibitor aminoguanidine; format: ADME, cell-based; conditions: du-145, 72 h
DU-145 [20] = experiment: Metabolic stability in human DU145 cells assessed as intracellular compound level per ug DNA at 100 uM after 72 hrs in presence of serum amine oxidases inhibitor aminoguanidine; format: ADME, cell-based; conditions: du-145, 72 h
DU-145 [21] = experiment: Metabolic stability in human DU145 cells assessed as intracellular spermine level per ug DNA at 100 uM after 24 hrs in presence of serum amine oxidases inhibitor aminoguanidine (reference value: 122 +/- 11 pmol/ug DNA); format: ADME, cell-based; conditions: du-145, 24 h
DU-145 [22] = experiment: Metabolic stability in human DU145 cells assessed as intracellular putrescine level per ug DNA at 100 uM after 72 hrs in presence of serum amine oxidases inhibitor aminoguanidine (reference value: 6 pmol/ug DNA); format: ADME, cell-based; conditions: du-145, 72 h
DU-145 [23] = experiment: Metabolic stability in N1,N11-diethyl-norspermine pretreated human DU145 cells expressing SSAT assessed as intracellular accumulation of acetylated derivatives of compound at 100 uM after 48 hrs; format: ADME, cell-based; conditions: du-145, 48 h
DU-145 [24] = experiment: Metabolic stability in human DU145 cells assessed as intracellular putrescine level per ug DNA at 100 uM after 48 hrs in presence of serum amine oxidases inhibitor aminoguanidine (reference value: 7 +/- 1 pmol/ug DNA); format: ADME, cell-based; conditions: du-145, 48 h
[25] = target: T1, Peroxisomal N(1)-acetyl-spermine/spermidine oxidase; experiment: Metabolic stability of the compound assessed as human recombinant APAO-mediated compound degradation at 0.5 to 1 mM after 5 to 60 mins; format: ADME; conditions: 1000 µM
DU-145 [26] = experiment: Metabolic stability in human DU145 cells assessed as intracellular putrescine level per ug DNA at 100 uM after 24 hrs in presence of serum amine oxidases inhibitor aminoguanidine (reference value: 11 +/- 2 pmol/ug DNA); format: ADME, cell-based; conditions: du-145, 24 h
DU-145 [27] = experiment: Metabolic stability of the compound in human DU145 cells assessed as compound metabolite-mediated cell toxicity at 100 uM after 48 hrs by MTT assay in presence of bovine serum amine oxidase; format: ADME, cell-based; conditions: du-145, 48 h
DU-145 [28] = experiment: Metabolic stability in human DU145 cells expressing SSAT assessed as accumulation of acetylated derivatives of compound in medium at 100 uM after 48 hrs; format: ADME, cell-based; conditions: du-145, 48 h
DU-145 [29] = experiment: Metabolic stability in human DU145 cells assessed as intracellular Ac-8-Methylspermidine level per ug DNA at 100 uM after 48 hrs in presence of serum amine oxidases inhibitor aminoguanidine; format: ADME, cell-based; conditions: du-145, 48 h
DU-145 [30] = experiment: Metabolic stability in human DU145 cells assessed as intracellular Ac-8-Methylspermidine level per ug DNA at 100 uM after 24 hrs in presence of serum amine oxidases inhibitor aminoguanidine; format: ADME, cell-based; conditions: du-145, 24 h
DU-145 [31] = experiment: Metabolic stability in human DU145 cells assessed as intracellular Ac-8-Methylspermidine level per ug DNA at 100 uM after 72 hrs in presence of serum amine oxidases inhibitor aminoguanidine; format: ADME, cell-based; conditions: du-145, 72 h

T1 sequence (Q6QHF9 whole entry): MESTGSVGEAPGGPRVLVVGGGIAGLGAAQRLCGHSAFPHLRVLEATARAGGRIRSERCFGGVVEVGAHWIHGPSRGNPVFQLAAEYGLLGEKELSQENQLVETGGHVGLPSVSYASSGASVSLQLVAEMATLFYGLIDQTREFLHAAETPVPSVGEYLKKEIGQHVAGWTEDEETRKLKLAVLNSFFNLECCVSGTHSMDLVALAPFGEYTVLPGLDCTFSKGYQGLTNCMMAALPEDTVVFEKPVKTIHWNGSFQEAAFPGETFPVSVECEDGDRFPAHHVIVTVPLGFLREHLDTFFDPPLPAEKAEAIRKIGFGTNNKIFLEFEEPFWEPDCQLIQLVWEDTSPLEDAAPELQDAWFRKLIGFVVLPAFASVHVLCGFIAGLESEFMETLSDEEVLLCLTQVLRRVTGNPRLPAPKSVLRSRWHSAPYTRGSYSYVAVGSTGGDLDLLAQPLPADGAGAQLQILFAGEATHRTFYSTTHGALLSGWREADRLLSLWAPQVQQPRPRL

Row | SMILES | Stability (DU-145 [1]) | Drug metabolism (DU-145 [3]) [pmol] | Activity (DU-145 [4]) [pmol] | Drug metabolism (DU-145 [5]) [pmol] | Drug metabolism (DU-145 [6]) [pmol] | Drug metabolism (DU-145 [7]) [pmol] | Drug metabolism (DU-145 [8]) [pmol] | Stability [9] | Drug metabolism (DU-145 [10]) [pmol] | Drug metabolism (DU-145 [11]) [pmol] | Drug metabolism (DU-145 [12]) [pmol] | Stability (DU-145 [13]) | Drug metabolism (DU-145 [14]) [pmol] | Drug metabolism (DU-145 [15]) [pmol/ug DNA] | Drug metabolism (DU-145 [16]) [pmol/ug DNA] | Activity (DU-145 [17]) [pmol] | viability at 72 h, 100 µM [18] [%] | Drug metabolism (DU-145 [19]) [pmol] | Drug metabolism (DU-145 [20]) [pmol] | Drug metabolism (DU-145 [21]) [pmol] | further results
1 | CC(=O)NCCCNCCCCN | Unstable | – | – | – | – | – | – | – | – | – | – | – | – | – | – | – | – | – | – | – | –
2 | C[C@H](N)CCNCCCCN | Unstable | 301 | 177 | 283 | 264 | 16 | 74 | Unstable | 55 | 44 | 371 | Stable | 239 | 11 | 15 | 49 | 84 | 60 | 311 | 62 | Drug metabolism (DU-145 [2]): 37 pmol
3 | CC(CN)CNCCCCN.Cl (stereo not given) | Unstable | 200 | 148 | 202 | 133 | 38 | 75 | Unstable | 72 | 77 | 214 | Stable | 135 | 38 | 39 | <5 | 86 | 80 | 134 | 67 | Drug metabolism (DU-145 [2]): 67 pmol; Drug metabolism (DU-145 [22]): < 5 pmol; Stability (DU-145 [23]): Unstable; Drug metabolism (DU-145 [24]): < 5 pmol; Stability [25]: Unstable; Drug metabolism (DU-145 [26]): < 5 pmol
4 | CC(CCN)NCCCCN.Cl (stereo not given) | Unstable | 181 | 149 | 168 | 181 | 22 | 115 | Stable | 103 | – | 176 | Stable | 168 | 18 | 23 | 109 | 91 | – | 176 | 92 | Drug metabolism (DU-145 [26]): < 5 pmol
5 | CC(N)CCCNCCCN (stereo not given) | Unstable | 257 | 138 | 326 | 257 | 20 | 70 | Unstable | 57 | 39 | 375 | Stable | 287 | 18 | 30 | 60 | 93 | 43 | 332 | 83 | Stability (DU-145 [27]): Unstable; Stability (DU-145 [28]): Unstable; Stability (DU-145 [23]): Unstable; Drug metabolism (DU-145 [29]): 7 pmol; Drug metabolism (DU-145 [30]): 15 pmol; Drug metabolism (DU-145 [31]): 4 pmol
6 | NCCCCNCCCN [SPERMIDINE] | Unstable | – | 126 | – | – | – | – | Unstable | – | – | – | Stable | – | – | – | <5 | 89 | – | – | – | Stability (DU-145 [27]): Unstable
